≈ marks a conversion by molar mass, not a printed value.
What was measured:
Format in all cases: cell-based
E. coli 31 = assay: In vitro antibacterial activity, two-fold agar-plate dilution method (MIC), E. coli 31; settings: Escherichia coli, heart infusion agar, 37° C., 20 hours, read-out: MIC (minimal inhibitory concentration)
Description: (§1) Now in order to show the utility of the object compounds [I], the test data on MIC (minimal inhibitory concentration) of representative compounds [I] of this invention are shown in the following.
(§2) In vitro antibacterial activity was determined by the two-fold agar-plate dilution method as described below.
(§3) One loopful of an overnight culture of each test strain in Trypticase-soy broth (10^6 viable cells per ml) was streaked on heart infusion agar (HI-agar) containing graded concentrations of representative test compound, and the minimal inhibitory concentration (MIC) was expressed in terms of μg/ml after incubation at 37° C. for 20 hours.

P. mirabilis 1 = assay: In vitro antibacterial activity, two-fold agar-plate dilution method (MIC), P. mirabilis 1; settings: Proteus mirabilis, heart infusion agar, 37° C., 20 hours, read-out: MIC (minimal inhibitory concentration)
Description: as §1, §2, §3

S. aureus 209P JC-1 = assay: In vitro antibacterial activity, two-fold agar-plate dilution method (MIC), S. aureus 209P JC-1; settings: Staphylococcus aureus, heart infusion agar, 37° C., 20 hours, read-out: MIC (minimal inhibitory concentration)
Description: as §1, §2, §3

P. vulgaris IAM 1025 = assay: In vitro antibacterial activity, two-fold agar-plate dilution method (MIC), P. vulgaris IAM 1025; settings: Proteus vulgaris, IAM1025, heart infusion agar, 37° C., 20 hours, read-out: MIC (minimal inhibitory concentration)
Description: as §1, §2, §3

E. coli 58 = assay: In vitro antibacterial activity, two-fold agar-plate dilution method (MIC), E. coli 58; settings: Escherichia coli, heart infusion agar, 37° C., 20 hours, read-out: MIC (minimal inhibitory concentration)
Description: as §1, §2, §3

Row | Compound | MIC (E. coli 31) [µg/mL] | MIC (P. mirabilis 1) [µg/mL] | MIC (S. aureus 209P JC-1) [µg/mL] | MIC (P. vulgaris IAM 1025) [µg/mL] | MIC (E. coli 58) [µg/mL]
1 | Nc1nc(/C(=N/OC2CC2Cl)C(=O)N[C@@H]2C(=O)N3C(C(=O)O)=C(CSc4nncs4)CS[C@H]23)cs1 (single isomer, unassigned) [(7)] | ≤ 0.025 | 0.2 (≈ 0.348 µM) | 0.39 (≈ 0.679 µM) | ≤ 0.025 | 0.05 (≈ 0.0871 µM)
2 | Nc1nc(/C(=N/OC2CC2)C(=O)N[C@@H]2C(=O)N3C(C(=O)[O-])=C(C[n+]4ccccc4)CS[C@H]23)cs1 [(1)] | ≤ 0.025 | 0.1 (≈ 0.2 µM) | 0.39 (≈ 0.779 µM) | 0.05 (≈ 0.0999 µM) | 0.05 (≈ 0.0999 µM)
3 | Nc1nc(/C(=N/OC2CC2)C(=O)N[C@@H]2C(=O)N3C(C(=O)O)=C(CSc4nncs4)CS[C@H]23)cs1 [(2)] | ≤ 0.025 | 0.05 (≈ 0.0927 µM) | 0.39 (≈ 0.723 µM) | ≤ 0.025 | ≤ 0.025
4 | Cn1c(SCC2=C(C(=O)O)N3C(=O)[C@@H](NC(=O)/C(=N\OC4CC4)c4csc(N)n4)[C@H]3SC2)n[nH]c(=O)c1=O [(3)] | ≤ 0.025 | 0.05 (≈ 0.0861 µM) | 0.39 (≈ 0.672 µM) | 0.05 (≈ 0.0861 µM) | ≤ 0.025
5 | Nc1nc(/C(=N/OC2CC2)C(=O)N[C@@H]2C(=O)N3C(C(=O)O)=C(CSc4ccc5nnnn5n4)CS[C@H]23)cs1 [(4)] | ≤ 0.025 | 0.1 (≈ 0.174 µM) | 0.39 (≈ 0.679 µM) | 0.05 (≈ 0.087 µM) | 0.05 (≈ 0.087 µM)
6 | Nc1nc(/C(=N/OC2CC2)C(=O)N[C@@H]2C(=O)N3C(C(=O)O)=C(CSc4ncns4)CS[C@H]23)cs1 [(5)] | ≤ 0.025 | 0.05 (≈ 0.0927 µM) | 0.39 (≈ 0.723 µM) | ≤ 0.025 | ≤ 0.025
7 | Nc1nc(/C(=N/OC2CC2(Cl)Cl)C(=O)N[C@@H]2C(=O)N3C(C(=O)[O-])=C(C[n+]4ccccc4)CS[C@H]23)cs1 (some centres unmarked) [(6)] | 0.05 (≈ 0.0878 µM) | 1.56 (≈ 2.74 µM) | 0.39 (≈ 0.685 µM) | 0.05 (≈ 0.0878 µM) | 0.2 (≈ 0.351 µM)
8 | Nc1nc(/C(=N/OC2CC2)C(=O)N[C@@H]2C(=O)N3C(C(=O)O)=C(CSc4cnns4)CS[C@H]23)cs1 [(8)] | ≤ 0.025 | 0.1 (≈ 0.185 µM) | 0.78 (≈ 1.45 µM) | 0.1 (≈ 0.185 µM) | 0.05 (≈ 0.0927 µM)
9 | CC(=O)OCC1=C(C(=O)O)N2C(=O)[C@@H](NC(=O)/C(=N\OC3CC3)c3csc(N)n3)[C@H]2SC1 [(9)] | 0.05 (≈ 0.104 µM) | 0.05 (≈ 0.104 µM) | 1.56 (≈ 3.24 µM) | ≤ 0.025 | 0.05 (≈ 0.104 µM)
10 | Nc1nc(/C(=N/OC2CC2)C(=O)N[C@@H]2C(=O)N3C(C(=O)[O-])=C(C[n+]4ccccc4)CS[C@H]23)ns1 [(10)] | < 0.025 | 0.2 (≈ 0.399 µM) | 0.78 (≈ 1.56 µM) | 0.1 (≈ 0.199 µM) | 0.2 (≈ 0.399 µM)

Reference: patent US4861769A, “Cephem compounds” (Fujisawa Pharmaceutical Co., Ltd., priority 1985, dated 1989)
